# Measurements: PMC7119063 (Bioorganic & Medicinal Chemistry, 2005)
# “Also recorded” adds a separate entry of the source.
# Key:
# SARS-CoV [1] = settings: cited from earlier work
# SARS-CoV 3CL protease = SARS-CoV 3CL protease (Severe acute respiratory syndrome coronavirus, UniProt P0C6X7); type: biochemical
# SARS-CoV [2] = type: cell-based
# [3] = tested on: human rhinovirus (HRV) 3C protease; settings: cited from earlier work
Compound,EC50 (SARS-CoV [1]) [nM],inhibitory activity against SARS-CoV 3CL protease (in words) (SARS-CoV 3CL protease),concentration at which active as anti-SARS agent (protection from CPE) (SARS-CoV [2]),activity to the SARS-CoV in a cell-based assay (SARS-CoV [1]),inhibition of HRV 3C protease (in words) [3]
CC(C)[C@@H]1NC(=O)[C@H](C)OC(=O)[C@@H](C(C)C)NC(=O)[C@@H](C(C)C)OC(=O)[C@H](C(C)C)NC(=O)[C@H](C)OC(=O)[C@@H](C(C)C)NC(=O)[C@@H](C(C)C)OC(=O)[C@H](C(C)C)NC(=O)[C@H](C)OC(=O)[C@@H](C(C)C)NC(=O)[C@@H](C(C)C)OC1=O [valinomycin],850,–,–,–,–
"CCOC(=O)C=CC(CC1CCNC1=O)NC(=O)C(CC(=O)C(NC(=O)c1cc(C)on1)C(C)C)Cc1ccc(F)cc1 (centres unmarked) [Compound 1a, Ethyl 4-[2-(4-fluorobenzyl)-6-methyl-5-(5-methyl-3-isoxazolyl)carbonylamino-1,4-dioxoheptylamino]-5-(2-oxo-3-pyrrolidinyl)-2-pentenoate]",–,no inhibitory activity; also recorded: inactive,inactive,inactive,potent inhibitor
